Experimental data from patent US8415358B2, “Pyrazine derivatives and their use as potassium channel modulators” (Neurosearch A/S, priority 2007, dated 2013).

Experiments:
hSK3 channels = biological target: T1, hSK3 channels (Homo sapiens, UniProt Q9UGI6); assay: Whole-cell patch-clamp recording of ionic current through SK channels (subtype 3) in HEK293 cells expressing hSK3; format: cell-based; settings: Stimulating Concentration required for increasing the baseline current by 100%, current at -75 mV, free Ca2+ 0.3-0.4 μM, room temperature
T1 construct: expressed in transfected cells; host or cells: HEK293
Procedure: The ionic current through small-conductance Ca^2+-activated K^+ channels (SK channels, subtype 3) is recorded using the whole-cell configuration of the patch-clamp technique.
HEK293 tissue culture cells expressing hSK3 channels were grown in DMEM (Dulbecco's Modified Eagle Medium) supplemented with 10% FCS (foetal calf serum) at 37° C. in 5% CO2. At 60-80% confluency, cells were harvested by trypsin treatment and seeded on cover slips.
Experiments are carried out on one of several patch-clamp set-ups. Cells plated on coverslips are placed in a 15 μl perfusion chamber (flowrate ˜1 ml/min) mounted on an IMT-2 microscope. The microscopes are placed on vibration-free tables in grounded Faraday cages. All experiments are performed at room temperature (20-22° C.). EPC-9 patch-clamp amplifiers (HEKA-electronics, Lambrect, Germany) are connected to Macintosh computers via ITC16 interfaces. Data are stored directly on the hard-disk and analysed by IGOR software (Wavemetrics, Lake Oswega, Oreg., USA).
The whole-cell configuration of the patch-clamp technique is applied. In short: The tip of a borosilicate pipette (resistance 2-4 MΩ) is gently placed on the cell membrane using remote control systems. Light suction results in the formation of a giga seal (pipette resistance increases to more than 1 GΩ) and the cell membrane underneath the pipette is then ruptured by more powerful suction. Cell capacitance is electronically compensated and the resistance between the pipette and the cell interior (the series resistance, Rs) is measured and compensated for. […]
The intracellular (pipette) solution contained: 154 mM KCl, 10 mM HEPES, 10 mM EGTA. Concentrations of CaCl2 and MgCl2 needed to obtain the desired free concentrations of Ca^2+ (0.3-0.4 μM, Mg^2+ always 1 mM) were calculated by EqCal software (Cambridge, UK) and added.
After establishment of the whole-cell configuration, voltage-ramps (normally −80 to +80 mV) are applied to the cell every 5 seconds from a holding potential of 0 mV. […] Active compounds are quantified by calculating the change in baseline current at −75 mV. […]

SMILES | melting point | SC100 (hSK3 channels)
Clc1ccc(Nc2cncc(-n3cccn3)n2)cc1 [Compound 3, (4-Chloro-phenyl)-(6-pyrazol-1-yl-pyrazin-2-yl)-amine] | 155 to 157 °C | 
Clc1ccc(Nc2cncc(-c3nccs3)n2)cc1 [Compound 8.4, (4-Chloro-phenyl)-(6-thiazol-2-yl-pyrazin-2-yl)-amine] |  | 0.30 µM
Clc1ccc(Nc2cncc(-n3cc4ccccc4n3)n2)cc1 [Compound 3.1, (4-Chloro-phenyl)-(6-indazol-2-yl-pyrazin-2-yl)-amine] | 249 to 252 °C | 
Cc1cccc(-c2cncc(Nc3ccc(Cl)cc3)n2)n1 [Compound 8.1, (4-Chloro-phenyl)-[6-(6-methyl-pyridin-2-yl)-pyrazin-2-yl]-amine] | 186 to 188 °C | 
Clc1ccc(Nc2cncc(-n3ncc4ccccc43)n2)cc1 [Compound 3.2, (4-Chloro-phenyl)-(6-indazol-1-yl-pyrazin-2-yl)-amine] | 204 to 207 °C | 

The remaining lines, values ahead:

melting point | SC100 (hSK3 channels) | SMILES
147 to 151 °C |  | COCc1ncc(Nc2ccc(Cl)cc2)nc1-n1nc(C)cc1C [Compound 17.1]
228 to 230 °C |  | CC(=O)NCc1ncc(-n2nc(C)cc2C)nc1Nc1ccc(Cl)cc1 [Compound 22.1, N-[3-(4-Chloro-phenylamino)-5-(3,5-dimethyl-pyrazol-1-yl)-pyrazin-2-ylmethyl]-acetamide]
157 to 158.9 °C | 0.25 µM | Cc1cc(C)n(-c2cncc(Nc3ccc(Cl)cc3)n2)n1 [Compound 4, (4-Chloro-phenyl)-[6-(3,5-dimethyl-pyrazol-1-yl)-pyrazin-2-yl]-amine]
112 to 114 °C |  | Cc1cc(C)n(-c2cnc(CN(C)C)c(Nc3ccc(Cl)cc3)n2)n1 [Compound 14.1, (4-Chloro-phenyl)-[3-dimethylaminomethyl-6-(3,5-dimethyl-pyrazol-1-yl)-pyrazin-2-yl]-amine]
122 to 124 °C |  | CCNc1ncc(Nc2ccc(Cl)cc2)nc1-n1nc(C)cc1C [Compound 27.2, 5-(4-Chloro-phenylamino)-3-(3,5-dimethyl-pyrazol-1-yl)-2-ethylamino-pyrazine]
228 to 231 °C | 0.075 µM | Cc1cc(C)n(-c2cnc(/C=N/O)c(Nc3ccc(Cl)cc3)n2)n1 [Compound 20.1, 3-(4-Chloro-phenylamino)-5-(3,5-dimethyl-pyrazol-1-yl) -pyrazine-2-carbaldehyde oxime]
105 to 108 °C |  | COCc1ncc(-n2nc(C)cc2C)nc1Nc1ccc(Cl)cc1 [Compound 16.1, (4-Chloro-phenyl)-[6-(3,5-dimethyl-pyrazol-1-yl)-3-methoxymethyl-pyrazin-2-yl]-amine]
156 to 160 °C |  | Cc1cc(C)n(-c2cnc(CN)c(Nc3ccc(Cl)cc3)n2)n1 [Compound 21.1, [3-Aminomethyl-6-(3,5-dimethyl-pyrazol-1-yl)-pyrazin-2-yl]-(4-chloro-phenyl)-amine]
